# Results: the NIST ThermoML archive (doi:10.1016/j.jct.2009.08.010)
# ± gives the expanded uncertainty stated by the source.
# Test: molar enthalpy of transition or fusion
# Details: 298.15 K; Crystal; Flow calorimetry
smiles,measurement,value
Cc1cccc2c1sc1ccccc12 [4-methyldibenzothiophene],molar enthalpy of transition or fusion,21.6 ± 0.335 kcal/mol
